Experimental data published in ChEMBL document CHEMBL6109125, “A New Protractor Potentiates Glucagon-Like Peptide 1 with Slow-Release Depot and Long-Term Action” (J Med Chem, 2025).
pEC50, pKd: −log10 of the molar value. Activity calls are given as the source filed them. The calls are words filed in the database; no cut-off is given here.

Key:
[1] = Apparent volume of distribution in BALB/c mouse at 0.5 mg/kg, iv measured up to 48 hrs by LC-MS/MS analysis; type: ADME, organism-based; conditions: in vivo, read-out: Vz
[2] = Apparent volume of distribution in Sprague-Dawley rat at 1 mg/kg, iv measured up to 48 hrs by LC-MS/MS analysis; type: ADME, organism-based; conditions: in vivo, read-out: Vz
Mus musculus [3] = assay: Anti-hyperglycemic activity in type-2 diabetes db/db mouse assessed as regulation of blood glucose level at 3 to 600 nmol/kg, sc measured up to 96 hrs; type: functional, organism-based
Mus musculus [4] = assay: Anti-hyperglycemic activity in 16 hr-fasted type-2 diabetes db/db mouse assessed as homeostasis of blood glucose level at 100 nmol/kg, sc pretreated for 0.5 hrs followed by glucose administration measured for 2 hrs; type: functional, organism-based; conditions: time 2.5 hrs
Mus musculus [5] = assay: Anti-hyperglycemic activity in 16 hr-fasted type-2 diabetes db/db mouse at 100 nmol/kg, sc pretreated for 0.5 hrs followed by glucose administration measured for 2 hrs by OGTT method; type: functional, organism-based; conditions: time 2.5 hrs
Mus musculus [6] = assay: Anti-hyperglycemic activity in well-fed type-2 diabetes db/db mouse assessed as blood glucose level at 100 nmol/kg, sc administered on every 48 hrs; type: functional
[7] = target: T1, Glucagon-like peptide 1 receptor (Homo sapiens, UniProt P43220); assay: Agonist activity at GLP-1R (unknown origin) expressed in HEK293 cells co-expressing CRE-Luc assessed as increase in intracellular cAMP accumulation in presence of 10% FBS by luciferase based assay; type: functional, cell-based; conditions: read-out: EC50
T1 sequence (P43220 whole entry): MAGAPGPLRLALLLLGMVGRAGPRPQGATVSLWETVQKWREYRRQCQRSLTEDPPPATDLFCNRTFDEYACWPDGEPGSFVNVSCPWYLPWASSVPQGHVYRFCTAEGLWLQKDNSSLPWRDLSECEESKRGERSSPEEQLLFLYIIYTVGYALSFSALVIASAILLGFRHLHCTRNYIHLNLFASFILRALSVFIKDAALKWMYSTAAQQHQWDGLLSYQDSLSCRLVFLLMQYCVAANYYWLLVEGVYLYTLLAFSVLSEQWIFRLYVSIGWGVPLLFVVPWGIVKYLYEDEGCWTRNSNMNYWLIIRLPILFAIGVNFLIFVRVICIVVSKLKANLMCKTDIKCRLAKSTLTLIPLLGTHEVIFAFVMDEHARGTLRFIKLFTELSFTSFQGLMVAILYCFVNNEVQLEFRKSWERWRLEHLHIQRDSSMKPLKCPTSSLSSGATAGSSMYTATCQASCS

[8] = target: T1, Glucagon-like peptide 1 receptor; assay: Agonist activity at GLP-1R (unknown origin) expressed in HEK293 cells co-expressing CRE-Luc assessed as increase in intracellular cAMP accumulation by luciferase based assay; type: functional, cell-based; conditions: read-out: EC50
[9] = target: T1, Glucagon-like peptide 1 receptor; assay: Agonist activity at GLP-1R (unknown origin) expressed in HEK293 cells co-expressing CRE-Luc assessed as increase in intracellular cAMP accumulation in presence of 2% HSA by luciferase based assay; type: functional, cell-based; conditions: read-out: EC50
[10] = Selectivity ratio of EC50 for agonist activity at GLP-1R (unknown origin) expressed in HEK293 cells co-expressing CRE-Luc assessed as increase in intracellular cAMP accumulation in presence of 2% HSA to EC50 for agonist activity at GLP-1R (unknown origin) expressed in HEK293 cells co-expressing CRE-Luc assessed as increase in intracellular cAMP accumulation; type: cell-based
Albumin = Albumin (Homo sapiens, UniProt P02768); assay: Binding affinity to human serum albumin immobilized on AR2G biosensor assessed as dissociation constant incubated for 3 mins by BLI assay; type: ADME
Sequence of Albumin (P02768 whole entry): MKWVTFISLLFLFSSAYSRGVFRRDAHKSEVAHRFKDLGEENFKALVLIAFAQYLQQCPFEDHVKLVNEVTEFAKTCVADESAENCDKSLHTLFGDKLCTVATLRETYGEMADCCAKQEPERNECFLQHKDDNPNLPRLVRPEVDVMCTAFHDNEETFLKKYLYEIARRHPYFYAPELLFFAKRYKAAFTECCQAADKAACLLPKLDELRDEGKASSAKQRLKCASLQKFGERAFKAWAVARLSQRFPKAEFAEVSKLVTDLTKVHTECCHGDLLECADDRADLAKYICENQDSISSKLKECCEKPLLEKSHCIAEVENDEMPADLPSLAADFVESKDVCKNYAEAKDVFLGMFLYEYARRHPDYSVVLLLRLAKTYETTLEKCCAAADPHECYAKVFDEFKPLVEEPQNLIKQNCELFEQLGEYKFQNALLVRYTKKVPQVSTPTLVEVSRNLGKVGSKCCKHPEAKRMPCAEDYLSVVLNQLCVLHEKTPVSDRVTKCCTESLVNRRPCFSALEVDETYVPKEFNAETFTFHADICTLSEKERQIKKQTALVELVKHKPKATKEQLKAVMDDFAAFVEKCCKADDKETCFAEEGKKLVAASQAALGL

[11] = Stability in Sprague-Dawley rat plasma assessed as compound remaining measured after 96 hrs by RP-HPLC analysis; type: ADME, cell-free; conditions: read-out: Stability
[12] = Stability in Sprague-Dawley rat plasma assessed as drug degradation by measuring half life measured after 96 hrs by RP-HPLC analysis; type: ADME, cell-free

| Compound | pEC50 [7] | pEC50 [8] | pEC50 [9] | Ratio EC50 [10] | further results |
| --- | --- | --- | --- | --- | --- |
| CC[C@H](C)[C@H](NC(=O)[C@H](Cc1ccccc1)NC(=O)[C@H](CCC(=O)O)NC(=O)[C@H](CCCCNC(=O)COCCOCCNC(=O)COCCOCCNC(=O)CC[C@H](NC(=O)CCCCCCCCCCCCCCCCC(=O)O)C(=O)O)NC(=O)[C@H](C)NC(=O)[C@H](C)NC(=O)[C@H](CCC(N)=O)NC(=O)CNC(=O)[C@H](CCC(=O)O)NC(=O)[C@H](CC(C)C)NC(=O)[C@H](Cc1ccc(O)cc1)NC(=O)[C@H](CO)NC(=O)[C@H](CO)NC(=O)[C@@H](NC(=O)[C@H](CC(=O)O)NC(=O)[C@H](CO)NC(=O)[C@@H](NC(=O)[C@H](Cc1ccccc1)NC(=O)[C@@H](NC(=O)CNC(=O)[C@H](CCC(=O)O)NC(=O)C(C)(C)NC(=O)[C@@H](N)Cc1cnc[nH]1)[C@@H](C)O)[C@@H](C)O)C(C)C)C(=O)N[C@@H](C)C(=O)N[C@@H](Cc1c[nH]c2ccccc12)C(=O)N[C@@H](CC(C)C)C(=O)N[C@H](C(=O)N[C@@H](CCCNC(=N)N)C(=O)NCC(=O)N[C@@H](CCCNC(=N)N)C(=O)NCC(=O)O)C(C)C | – | – | – | – | Vd [1]: 0.083 L/kg; Vd [2]: 0.163 L/kg; EC50 (Mus musculus [3]): 2 nmol/kg; Activity (Mus musculus [4]): Active; Activity (Mus musculus [5]): Active; Activity (Mus musculus [6]): <10 mM |
| CCOc1ccc(Nc2ccc(/C(=C3C=C/C(=[N+](\CC)Cc4ccc(S(=O)(=O)[O-])cc4)C=C/3C)c3ccc(N(CC)Cc4cccc(S(=O)(=O)NCCCCCC(=O)N[C@H](C(=O)O)C(=O)NCCCC[C@H](NC(=O)[C@H](C)NC(=O)[C@H](C)NC(=O)[C@H](CCC(N)=O)NC(=O)CNC(=O)[C@H](CCC(=O)O)NC(=O)[C@H](CC(C)C)NC(=O)[C@H](Cc5ccc(O)cc5)NC(=O)[C@H](CO)NC(=O)[C@H](CO)NC(=O)[C@@H](NC(=O)[C@H](CC(=O)O)NC(=O)[C@H](CO)NC(=O)[C@@H](NC(=O)[C@H](Cc5ccccc5)NC(=O)[C@@H](NC(=O)CNC(=O)[C@H](CCC(=O)O)NC(=O)C(C)(C)NC(=O)[C@@H](N)Cc5c[nH]cn5)[C@@H](C)O)[C@@H](C)O)C(C)C)C(=O)N[C@@H](CCC(=O)O)C(=O)N[C@@H](Cc5ccccc5)C(=O)N[C@H](C(=O)N[C@@H](C)C(=O)N[C@@H](Cc5c[nH]c6ccccc56)C(=O)N[C@@H](CC(C)C)C(=O)N[C@H](C(=O)N[C@@H](CCCNC(=N)N)C(=O)NCC(=O)N[C@@H](CCCNC(=N)N)C(=O)NCC(=O)O)C(C)C)[C@@H](C)CC)c4)cc3C)cc2)cc1 | 11.39 | 11.95 | 11.05 | 7.91 | – |
| CCOc1ccc(Nc2ccc(/C(=C3C=C/C(=[N+](\CC)Cc4cccc(S(=O)(=O)[O-])c4)C=C/3C)c3ccc(N(CC)Cc4cccc(S(=O)(=O)NCCCCCC(=O)N[C@@H](CS(=O)(=O)O)C(=O)N[C@@H](CS(=O)(=O)O)C(=O)NCCCC[C@H](NC(=O)[C@H](C)NC(=O)[C@H](C)NC(=O)[C@H](CCC(N)=O)NC(=O)CNC(=O)[C@H](CCC(=O)O)NC(=O)[C@H](CC(C)C)NC(=O)[C@H](Cc5ccc(O)cc5)NC(=O)[C@H](CO)NC(=O)[C@H](CO)NC(=O)[C@@H](NC(=O)[C@H](CC(=O)O)NC(=O)[C@H](CO)NC(=O)[C@@H](NC(=O)[C@H](Cc5ccccc5)NC(=O)[C@@H](NC(=O)CNC(=O)[C@H](CCC(=O)O)NC(=O)C(C)(C)NC(=O)[C@@H](N)Cc5c[nH]cn5)[C@@H](C)O)[C@@H](C)O)C(C)C)C(=O)N[C@@H](CCC(=O)O)C(=O)N[C@@H](Cc5ccccc5)C(=O)N[C@H](C(=O)N[C@@H](C)C(=O)N[C@@H](Cc5c[nH]c6ccccc56)C(=O)N[C@@H](CC(C)C)C(=O)N[C@H](C(=O)N[C@@H](CCCNC(=N)N)C(=O)NCC(=O)N[C@@H](CCCNC(=N)N)C(=O)NCC(=O)O)C(C)C)[C@@H](C)CC)c4)cc3C)cc2)cc1 | 11.16 | 11.78 | 11.15 | – | – |
| CCOc1ccc(Nc2ccc(/C(=C3C=C/C(=[N+](/CC)Cc4cccc(S(=O)(=O)[O-])c4)C=C/3C)c3ccc(N(CC)Cc4cccc(S(=O)(=O)O)c4)cc3C)cc2)cc1 [BRILLIANT BLUE G FREE ACID] | – | – | – | – | pKd (Albumin): 6.49 |
| H-HGEGTFTSDVSSYLEGQAAREFIAWLVRGRG-NH2 | 10.79 | 10.20 | 10.07 | 1.34 | remaining at 96 h [11]: 0%; half-life [12]: 50 min |

Further compounds by rising pEC50 [7], results first:

| pEC50 [7] | pEC50 [8] | pEC50 [9] | Compound | Ratio EC50 [10] | further results |
| --- | --- | --- | --- | --- | --- |
| 11.40 | 12.48 | 12.08 | CCOc1ccc(Nc2ccc(/C(=C3C=C/C(=[N+](\CC)Cc4cccc(S(=O)(=O)[O-])c4)C=C\3C)c3ccc(N(CC)Cc4cccc(S(=O)(=O)NCCCCCC(=O)NCCOCCOCCOCCOCCOCCOCCOCCOCCC(=O)NCCCC[C@H](NC(=O)[C@@H](NC(=O)[C@H](CC(C)C)NC(=O)[C@H](Cc5c[nH]c6ccccc56)NC(=O)[C@H](C)NC(=O)[C@@H](NC(=O)[C@H](Cc5ccccc5)NC(=O)[C@H](CCC(=O)O)NC(=O)[C@H](CCCCN)NC(=O)[C@H](C)NC(=O)[C@H](C)NC(=O)[C@H](CCC(N)=O)NC(=O)CNC(=O)[C@H](CCC(=O)O)NC(=O)[C@H](CC(C)C)NC(=O)[C@H](Cc5ccc(O)cc5)NC(=O)[C@H](CO)NC(=O)[C@H](CO)NC(=O)[C@@H](NC(=O)[C@H](CC(=O)O)NC(=O)[C@H](CO)NC(=O)[C@@H](NC(=O)[C@H](Cc5ccccc5)NC(=O)[C@@H](NC(=O)CNC(=O)[C@H](CCC(=O)O)NC(=O)[C@H](CO)NC(=O)[C@@H](N)Cc5c[nH]cn5)[C@@H](C)O)[C@@H](C)O)C(C)C)[C@@H](C)CC)C(C)C)C(=O)NCC(=O)N[C@@H](CCCNC(=N)N)C(N)=O)c4)cc3C)cc2)cc1 | 2.55 | – |
| 11.53 | 11.93 | 11.04 | CCOc1ccc(Nc2ccc(/C(=C3C=C/C(=[N+](\CC)Cc4cccc(S(=O)(=O)[O-])c4)C=C/3C)c3ccc(N(CC)Cc4cccc(S(=O)(=O)NCCCCCC(=O)N[C@@H](CCC(=O)NCCCC[C@H](NC(=O)[C@H](C)NC(=O)[C@H](C)NC(=O)[C@H](CCC(N)=O)NC(=O)CNC(=O)[C@H](CCC(=O)O)NC(=O)[C@H](CC(C)C)NC(=O)[C@H](Cc5ccc(O)cc5)NC(=O)[C@H](CO)NC(=O)[C@H](CO)NC(=O)[C@@H](NC(=O)[C@H](CC(=O)O)NC(=O)[C@H](CO)NC(=O)[C@@H](NC(=O)[C@H](Cc5ccccc5)NC(=O)[C@@H](NC(=O)CNC(=O)[C@H](CCC(=O)O)NC(=O)C(C)(C)NC(=O)[C@@H](N)Cc5c[nH]cn5)[C@@H](C)O)[C@@H](C)O)C(C)C)C(=O)N[C@@H](CCC(=O)O)C(=O)N[C@@H](Cc5ccccc5)C(=O)N[C@H](C(=O)N[C@@H](C)C(=O)N[C@@H](Cc5c[nH]c6ccccc56)C(=O)N[C@@H](CC(C)C)C(=O)N[C@H](C(=O)N[C@@H](CCCNC(=N)N)C(=O)NCC(=O)N[C@@H](CCCNC(=N)N)C(=O)NCC(=O)O)C(C)C)[C@@H](C)CC)C(=O)O)c4)cc3C)cc2)cc1 | – | – |
| 11.94 | 11.95 | 11.37 | CCOc1ccc(Nc2ccc(/C(=C3C=C/C(=[N+](\CC)Cc4cccc(S(=O)(=O)[O-])c4)C=C/3C)c3ccc(N(CC)Cc4cccc(S(=O)(=O)NCCCCCC(=O)N[C@@H](CS(=O)(=O)O)C(=O)NCCOCCOCC(=O)NCCCC[C@H](NC(=O)[C@H](C)NC(=O)[C@H](C)NC(=O)[C@H](CCC(N)=O)NC(=O)CNC(=O)[C@H](CCC(=O)O)NC(=O)[C@H](CC(C)C)NC(=O)[C@H](Cc5ccc(O)cc5)NC(=O)[C@H](CO)NC(=O)[C@H](CO)NC(=O)[C@@H](NC(=O)[C@H](CC(=O)O)NC(=O)[C@H](CO)NC(=O)[C@@H](NC(=O)[C@H](Cc5ccccc5)NC(=O)[C@@H](NC(=O)CNC(=O)[C@H](CCC(=O)O)NC(=O)C(C)(C)NC(=O)[C@@H](N)Cc5c[nH]cn5)[C@@H](C)O)[C@@H](C)O)C(C)C)C(=O)N[C@@H](CCC(=O)O)C(=O)N[C@@H](Cc5ccccc5)C(=O)N[C@H](C(=O)N[C@@H](C)C(=O)N[C@@H](Cc5c[nH]c6ccccc56)C(=O)N[C@@H](CC(C)C)C(=O)N[C@H](C(=O)N[C@@H](CCCNC(=N)N)C(=O)NCC(=O)N[C@@H](CCCNC(=N)N)C(=O)NCC(=O)O)C(C)C)[C@@H](C)CC)c4)cc3C)cc2)cc1 | – | – |
